In paper PMC7932537, “Quantitative profiling of protease specificity” (PLoS Computational Biology, 2021):

How the values were obtained:
MMP-9 = MMP-9 (Homo sapiens, UniProt P14780); test: K(obs) of individual phage substrates (set of 1369); format: biochemical; details: MMP9
MMP-2 [1] = target: T1, MMP-2 (Homo sapiens, UniProt P08253); test: as above; format: biochemical; details: MMP2
T1 sequence (P08253 110-660): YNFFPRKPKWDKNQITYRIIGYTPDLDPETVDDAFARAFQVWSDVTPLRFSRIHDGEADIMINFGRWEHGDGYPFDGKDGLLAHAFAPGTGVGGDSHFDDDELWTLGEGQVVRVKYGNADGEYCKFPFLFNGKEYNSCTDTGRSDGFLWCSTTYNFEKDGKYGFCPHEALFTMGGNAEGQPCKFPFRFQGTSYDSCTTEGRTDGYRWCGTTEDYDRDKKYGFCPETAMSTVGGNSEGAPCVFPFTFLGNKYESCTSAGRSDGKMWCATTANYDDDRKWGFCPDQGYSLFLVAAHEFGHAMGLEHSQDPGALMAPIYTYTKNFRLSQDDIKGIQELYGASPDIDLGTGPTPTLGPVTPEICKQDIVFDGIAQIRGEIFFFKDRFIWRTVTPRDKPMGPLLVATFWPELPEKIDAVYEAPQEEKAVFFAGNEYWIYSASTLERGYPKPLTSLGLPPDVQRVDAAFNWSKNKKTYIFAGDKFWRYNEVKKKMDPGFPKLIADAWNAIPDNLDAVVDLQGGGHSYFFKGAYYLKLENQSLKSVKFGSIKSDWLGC

MMP-2 [2] = test: Substrate phage display with NGS: relative probability (RP) of P3-P1' tetramer clusters; format: biochemical, human; details: MMP2;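 note: ratio of tetramer probability after protease selection to that in naive phage library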
[3] = individual phage substrate of the set of 1369 peptides, dash in the sequence marks the cleavage position
[4] = individual phage substrate of the set of 1369 peptides, cleavage position marked by '-'
[5] = RP of the P3-P1' tetramer contained in the substrate
[6] = individual phage substrates, set of 1369 peptides, hyphen in sequence marks cleavage position
[7] = individual phage substrates, set of 1369 peptides, cleavage position marked by hyphen in sequence
[8] = RP of the P3-P1' tetramer contained in the substrate (substrate phage display with NGS)

MMP-9, sequence (P14780 94-707): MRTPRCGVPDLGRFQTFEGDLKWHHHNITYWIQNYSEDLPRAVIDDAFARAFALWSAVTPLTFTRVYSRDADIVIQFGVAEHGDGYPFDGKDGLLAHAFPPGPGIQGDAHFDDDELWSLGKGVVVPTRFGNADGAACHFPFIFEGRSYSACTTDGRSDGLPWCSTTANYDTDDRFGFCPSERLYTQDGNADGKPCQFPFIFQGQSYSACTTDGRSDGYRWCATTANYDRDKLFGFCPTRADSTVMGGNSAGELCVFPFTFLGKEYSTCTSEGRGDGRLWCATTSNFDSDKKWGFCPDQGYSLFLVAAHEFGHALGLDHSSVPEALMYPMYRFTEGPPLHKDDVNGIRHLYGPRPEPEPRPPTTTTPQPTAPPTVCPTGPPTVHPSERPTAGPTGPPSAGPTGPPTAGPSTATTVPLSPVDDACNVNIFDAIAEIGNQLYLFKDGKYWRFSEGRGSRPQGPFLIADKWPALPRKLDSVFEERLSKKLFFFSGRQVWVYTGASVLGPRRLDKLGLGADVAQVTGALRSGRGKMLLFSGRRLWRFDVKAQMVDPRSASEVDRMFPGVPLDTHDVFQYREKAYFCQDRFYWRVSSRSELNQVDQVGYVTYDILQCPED

| Substance | Kobs (MMP-9; [3]) [M⁻¹ s⁻¹] | Kobs (MMP-2 [1]; [4]) [M⁻¹ s⁻¹] | Kobs (MMP-9; [6]) [M⁻¹ s⁻¹] | Kobs (MMP-2 [1]; [7]) [M⁻¹ s⁻¹] | relative probability (RP) (MMP-2 [2]; [5]) | relative probability (RP) (MMP-2 [2]; [8]) |
| --- | --- | --- | --- | --- | --- | --- |
| SEPFG-LTASG | 12792.1 | 12792.1 |  |  | 31.7131 |  |
| TTHYS-LTASG |  |  | 142.481 | 0 |  | 0.1694 |
| SGLWY-LSATA |  |  | 484.315 | 1196.62 |  | 0.6796 |
| SGPFF-LRKTA |  |  | 5090.5 | 1239.69 |  | 12.8224 |
| SLPTS-LTASG |  |  | 2097.28 | 8321.48 |  | 28.926 |
| SGYAN-MRRTA |  |  | 762.325 | 2097.28 |  | 22.6837 |
| SYALH-LTASG | 3964.21 | 12792.1 |  |  | 14.6488 |  |
| TFPFM-LTASG | 12792.1 | 1981.53 |  |  | 19.624 |  |
| EMSWG-LTASG |  |  | 231.616 | 0 |  | 0.1389 |
| KMVYM-LTASG |  |  | 3438.54 | 1561.44 |  | 5.094 |
| SGPAR-LISTA |  |  | 12792.1 | 12792.1 |  | 34.9166 |
| SGPKS-LVRTA | 12792.1 | 12792.1 |  |  | 32.0343 |  |
| PRVWL-LTASG |  |  | 2687.73 | 3165.09 |  | 0.5351 |
| GVVLN-LETAS | 1465.65 | 1196.62 |  |  | 18.9065 |  |
| AAWAS-ITASG | 0 | 6396.07 |  |  | 12.5247 |  |
| ACIWS-LTASG | 355.093 | 27.918 |  |  | 5.404 |  |
| GIPYH-LATAS | 7015.91 | 1816.46 |  |  | 27.2418 |  |
| LVGRA-LTASG | 2476.66 | 6688.74 |  |  | 7.944 |  |
| SGRRN-LMNTA |  |  | 484.315 | 912.511 |  | 6.1579 |
| TVVAY-ITASG | 1112.44 | 12792.1 |  |  | 18.7179 |  |

| Substance | Kobs (MMP-9; [3]) [M⁻¹ s⁻¹] | Kobs (MMP-2 [1]; [4]) [M⁻¹ s⁻¹] | Kobs (MMP-9; [6]) [M⁻¹ s⁻¹] | Kobs (MMP-2 [1]; [7]) [M⁻¹ s⁻¹] | relative probability (RP) (MMP-2 [2]; [5]) | relative probability (RP) (MMP-2 [2]; [8]) |
| --- | --- | --- | --- | --- | --- | --- |
| TQVFG-LTASG |  |  | 5461.43 | 2687.73 |  | 12.5523 |
| GGPIP-LWTAS |  |  | 12792.1 | 4763.33 |  | 33.1236 |
| YLVRY-LTASG |  |  | 12792.1 | 9740.44 |  | 18.3724 |
| RTAHN-LTASG | 5667.28 | 12792.1 |  |  | 23.7113 |  |
| HSPWF-LTASG |  |  | 9740.44 | 3165.09 |  | 12.628 |
| PKMSH-LTASG | 0 | 2409.72 |  |  | 24.6165 |  |
| IDTRW-YTASG | 2344.36 | 3344.37 |  |  | 6.7229 |  |
| SGARA-MKWTA | 2837.92 | 1373.05 |  |  | 25.2992 |  |
| QVSWA-WTASG |  |  | 231.616 | 0 |  | 0.05632 |
| QRMAS-LTASG |  |  | 551.253 | 10866.7 |  | 31.6834 |
| VRWSW-LTASG | 0 | 2038.8 |  |  | 7.878 |  |
| GMAQY-LTASG |  |  | 762.325 | 4205.91 |  | 7.443 |
| SGSMR-LVLTA |  |  | 0 | 0 |  | 0 |
| SGPSW-LYTTA |  |  | 10866.7 | 9740.44 |  | 35.705 |
| SGVWG-IYVTA |  |  | 2761.81 | 484.315 |  | 3.01 |
| TMGMN-MTASG |  |  | 517.582 | 142.481 |  | 0 |
| GIPRP-VMTAS | 6131.32 | 6688.74 |  |  | 29.4989 |  |
| GSHSN-LMTAS |  |  | 56.119 | 12792.1 |  | 27.7336 |
| SGGSG-LRVLK | 355.093 | 654.784 |  |  | 1.9698 |  |

Continued, in another order:

| Kobs (MMP-9; [3]) [M⁻¹ s⁻¹] | Kobs (MMP-2 [1]; [4]) [M⁻¹ s⁻¹] | Kobs (MMP-9; [6]) [M⁻¹ s⁻¹] | Kobs (MMP-2 [1]; [7]) [M⁻¹ s⁻¹] | Substance | relative probability (RP) (MMP-2 [2]; [5]) | relative probability (RP) (MMP-2 [2]; [8]) |
| --- | --- | --- | --- | --- | --- | --- |
| 836.403 | 12792.1 |  |  | HQWAA-LTASG | 24.4484 |  |
|  |  | 6396.07 | 2476.66 | HLAYH-MTASG |  | 3.76 |
| 12792.1 | 9740.44 |  |  | FVVRA-LTASG | 30.4312 |  |
|  |  | 171.876 | 1112.44 | SGWSG-MMATA |  | 18.3143 |
|  |  | 0 | 8941.32 | NRFSN-LTASG |  | 24 |
| 12792.1 | 7815.03 |  |  | SGPQW-ITGTA | 28.1021 |  |
| 990.764 | 1327.88 |  |  | APYNH-LTASG | 3.693 |  |
| 3850.82 | 3165.09 |  |  | KTVVW-YTASG | 9.938 |  |
| 12792.1 | 12792.1 |  |  | VLWRA-LTASG | 22.4074 |  |
|  |  | 12792.1 | 12792.1 | GGPSM-LTASG |  | 33.0235 |
|  |  | 0 | 7015.91 | GYFGN-LRTAS |  | 26.0275 |
|  |  | 990.764 | 1870.4 | GSTRN-LITAS |  | 12.3403 |
|  |  | 12792.1 | 9740.44 | TTPSW-LTASG |  | 35.705 |
| 0 | 654.784 |  |  | SGMGH-LLHTA | 26.7019 |  |
| 3536.02 | 1981.53 |  |  | SGHRS-LRSTA | 7.851 |  |
|  |  | 0 | 12792.1 | RSHAS-LTASG |  | 26.2573 |
| 7015.91 | 6131.32 |  |  | RVPYG-LTASG | 32.9966 |  |
|  |  | 517.582 | 1711.63 | GLLLN-MTASG |  | 13.7728 |
